Read-outs that look alike come from different tables or passages of the source. Where a SMILES comes first, the peptide text is derived from it. Bridges are numbered along the chain shown (N, C = ends). [ ]: non-standard residue; d: D form. The star is where a group is joined. Ileψ(thiazoline)Cys = CC[C@H](C)[C@H](N)C1=N[C@H](C(=O)*)CS1; dOrn = NCCC[C@@H](N)C(=O)O
Legend:
[1] = test system: Salmonella typhimurium; assay type: cell-based
[2] = test system: E. coli strain 046 (E.C. 046); assay type: cell-based
[3] = test system: Bacteroides fragilis (Bf); assay: Antimicrobial growth inhibition, Bf; assay type: cell-based; details: Anaerobic, 6 h, 37° C.
[4] = test system: Streptococcus sp. 1 X A7 (Strep A7); assay type: cell-based
[5] = Growth promotion and feed utilization in chicks; assay type: in vivo, chicks (broiler cockerels); details: 8 weeks
[6] = test system: Streptococcus sp. 1 X C15 (Strep C15); assay type: cell-based
[7] = test system: Clostridium perfringens (Cp); assay type: cell-based; details: Anaerobic, 6 h, 37° C.
[8] = test system: antibiotic resistant E. coli (E.C. 324); assay type: cell-based; details: Gram Neg., 6 h, 37° C., aerobic
[9] = test system: Eimeria tenella Eli Lilly Strain 65 (Lilly 65); assay: In vitro anticoccidial test in chick kidney cell monolayers; assay type: cell-based; details: 72 h, 3 days, read-out: % Inhibition of Coccidia
[10] = experiment set 3, 50 ppm in feed
[11] = experiment set 4, 50 ppm in feed
[12] = experiment set 1, 75 ppm in feed
[13] = experiment set 2, 50 ppm in feed
[14] = experiment set 5, 50 ppm in feed

Row | Compound | Growth of S.T. in the presence of the test compound ([1]; 6.4 ppm) | Growth of S.T. in the presence of the test compound ([1]; 64 ppm) | Growth of E.C. 046 in the presence of the test compound ([2]; 6.4 ppm) | Growth of E.C. 046 in the presence of the test compound ([2]; 64 ppm) | Growth of Bf in the presence of the test compound ([3]; 6.4 ppm) | Growth of Bf in the presence of the test compound ([3]; 64 ppm) | Growth of Strep A7 in the presence of the test compound ([4]; 6.4 ppm) | Growth of Strep A7 in the presence of the test compound ([4]; 64 ppm) | Growth of Strep C15 in the presence of the test compound ([6]; 6.4 ppm) | Growth of Strep C15 in the presence of the test compound ([6]; 64 ppm) | Growth of Cp in the presence of the test compound ([7]; 6.4 ppm) | Growth of Cp in the presence of the test compound ([7]; 64 ppm) | Growth of E.C. 324 in the presence of the test compound ([8]; 6.4 ppm) | Growth of E.C. 324 in the presence of the test compound ([8]; 64 ppm) | other results
1 | Gentamicin | - | - | + | - | - | - | - | - | - | - | + | + | + | - | feed efficiency (% better or worse than control) [5, 10]: 15%; weight gain (% better or worse than control) [5, 10]: 32%
2 | CN(C)[C@@H]1C(O)=C(C(N)=O)C(=O)[C@@]2(O)C(O)=C3C(=O)c4c(O)ccc(Cl)c4[C@@](C)(O)[C@H]3C[C@@H]12 [Chlortetracycline] | - | - | + | - | + | - | - | - | - | - | + | + | + | - | 
3 | CC[C@H]1OC(=O)C[C@@H](O)[C@H](C)[C@@H](O[C@@H]2O[C@H](C)[C@@H](O[C@H]3C[C@@](C)(O)[C@@H](O)[C@H](C)O3)[C@H](N(C)C)[C@H]2O)[C@@H](CC=O)C[C@@H](C)C(=O)/C=C/C(C)=C/[C@@H]1CO[C@@H]1O[C@H](C)[C@@H](O)[C@@H](OC)[C@H]1OC [Tylosin] | + | + | + | + | - | - | - | - | - | - | + | - | + | + | 
4 | NC[C@H]1O[C@H](O[C@H]2[C@H](O)[C@@H](O[C@H]3O[C@H](CO)[C@@H](O)[C@H](N)[C@H]3O)[C@H](N)C[C@@H]2N)[C@H](O)[C@@H](O)[C@@H]1O [Kanamycin] | + | - | + | + | - | - | - | - | - | - | + | + | + | - | feed efficiency (% better or worse than control) [5, 11]: 19%; weight gain (% better or worse than control) [5, 11]: 14%
5 | CC1(C)S[C@@H]2[C@H](NC(=O)Cc3ccccc3)C(=O)N2[C@H]1C(=O)O [Penicillin] | + | - | + | - | + | - | - | - | - | - | + | + | + | - | feed efficiency (% better or worse than control) [5, 12]: 5.5%; weight gain (% better or worse than control) [5, 12]: 20%; feed efficiency (% better or worse than control) [5, 13]: 32%; weight gain (% better or worse than control) [5, 13]: 40%; feed efficiency (% better or worse than control) [5, 10]: 13%; weight gain (% better or worse than control) [5, 10]: 35%; feed efficiency (% better or worse than control) [5, 11]: 11%; weight gain (% better or worse than control) [5, 11]: 19%; feed efficiency (% better or worse than control) [5, 14]: 21%; weight gain (% better or worse than control) [5, 14]: 50%
6 | CC[C@H]1OC(=O)[C@H](C)[C@@H](O[C@H]2C[C@@](C)(OC)[C@@H](O)[C@H](C)O2)[C@H](C)[C@@H](O[C@@H]2O[C@H](C)C[C@H](N(C)C)[C@H]2O)[C@](C)(O)C[C@@H](C)C(=O)[C@H](C)[C@@H](O)[C@]1(C)O [Erythromycin] | + | - | + | - | + | - | - | - | - | - | + | + | + | + | 
7 | CCC[C@@H]1C[C@@H](C(=O)N[C@@H]([C@H]2O[C@H](SC)[C@H](O)[C@@H](O)[C@H]2O)[C@@H](C)O)N(C)C1 [Lincomycin] | + | + | + | + | - | - | - | - | - | - | + | + | + | + | feed efficiency (% better or worse than control) [5, 12]: 12%; weight gain (% better or worse than control) [5, 12]: 20%
8 | Clc1ccc(C2=Nc3cc(Cl)c(Cl)cc3NC2c2ccc(Cl)cc2Cl)c(Cl)c1 (centres unmarked) [Example 3, 2,3-di(2,4-dichlorophenyl)-6,7-dichloro-1,2-dihydroquinoxaline] |  |  |  |  |  |  |  |  |  |  |  |  |  |  | inhibition at 0.1 ppm [9]: 88.6%; inhibition at 10 ppm [9]: 98%
9 | Clc1ccc(C2=Nc3ccccc3NC2c2ccc(Cl)cc2Cl)c(Cl)c1 (centres unmarked) [Example 6, 2,3-di(2,4-dichlorophenyl)-1,2-dihydroquinoxaline] |  |  |  |  |  |  |  |  |  |  |  |  |  |  | inhibition at 0.1 ppm [9]: 60%; inhibition at 10 ppm [9]: 100%
10 | CC[C@H](C)[C@H](N)C1=N[C@H](C(=O)N[C@@H](CC(C)C)C(=O)N[C@H](CCC(=O)O)C(=O)N[C@H](C(=O)N[C@H]2CCCCNC(=O)[C@H](CC(N)=O)NC(=O)[C@@H](CC(=O)O)NC(=O)[C@H](Cc3cnc[nH]3)NC(=O)[C@@H](Cc3ccccc3)NC(=O)[C@H]([C@@H](C)CC)NC(=O)[C@@H](CCCN)NC2=O)[C@@H](C)CC)CS1 [Bacitracin] ({Ileψ(thiazoline)Cys}-L[dE]IK[dOrn]I[dF]H[dD]N; lactam 4-C) | + | + | + | + | - | - | - | - | - | - | + | - | + | + | feed efficiency (% better or worse than control) [5, 12]: 19%; weight gain (% better or worse than control) [5, 12]: 25%; feed efficiency (% better or worse than control) [5, 13]: 32%; weight gain (% better or worse than control) [5, 13]: 40%
11 | Polymyxin | - | - | - | - | + | - | + | - | - | - | + | + | - | - | feed efficiency (% better or worse than control) [5, 11]: 6%; weight gain (% better or worse than control) [5, 11]: -3%
